The target of assay [1] is T1, Ephrin type-B receptor 3 (Homo sapiens) (UniProt P54753).
T1 sequence (whole entry): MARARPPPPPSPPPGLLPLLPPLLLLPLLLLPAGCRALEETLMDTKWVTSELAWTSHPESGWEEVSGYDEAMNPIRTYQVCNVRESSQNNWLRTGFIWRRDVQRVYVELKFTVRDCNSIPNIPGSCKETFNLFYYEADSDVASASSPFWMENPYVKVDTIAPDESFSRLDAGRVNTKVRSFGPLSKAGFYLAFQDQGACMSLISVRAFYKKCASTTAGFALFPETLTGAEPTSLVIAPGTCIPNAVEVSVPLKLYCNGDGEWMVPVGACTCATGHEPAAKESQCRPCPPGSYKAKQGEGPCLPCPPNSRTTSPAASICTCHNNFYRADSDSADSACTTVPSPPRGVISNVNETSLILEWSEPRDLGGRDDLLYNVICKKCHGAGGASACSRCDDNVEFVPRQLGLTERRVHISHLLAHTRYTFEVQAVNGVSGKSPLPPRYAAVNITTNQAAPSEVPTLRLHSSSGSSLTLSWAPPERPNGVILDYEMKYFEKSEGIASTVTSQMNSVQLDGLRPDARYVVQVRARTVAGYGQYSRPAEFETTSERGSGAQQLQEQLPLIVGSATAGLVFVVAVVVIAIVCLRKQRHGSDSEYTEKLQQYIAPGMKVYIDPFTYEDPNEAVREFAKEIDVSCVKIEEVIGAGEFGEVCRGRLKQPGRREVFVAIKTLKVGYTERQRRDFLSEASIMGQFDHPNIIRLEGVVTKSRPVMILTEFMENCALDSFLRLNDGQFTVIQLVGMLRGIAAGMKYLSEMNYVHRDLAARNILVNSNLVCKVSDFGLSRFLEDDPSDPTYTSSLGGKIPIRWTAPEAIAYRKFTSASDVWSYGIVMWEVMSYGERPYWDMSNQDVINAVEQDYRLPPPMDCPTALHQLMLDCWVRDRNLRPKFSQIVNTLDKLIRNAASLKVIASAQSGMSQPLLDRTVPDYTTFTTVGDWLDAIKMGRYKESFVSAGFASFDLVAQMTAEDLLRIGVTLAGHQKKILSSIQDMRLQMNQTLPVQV
As to the kind of experiment: Selectivity interaction (ProQinase) EUB0000171b EPHB3.

Assay [2] deals with Coiled-coil domain-containing protein 6/Tyrosine-protein kinase receptor RET (Homo sapiens) (UniProt P07949+Q16204). As to the kind of experiment: Selectivity interaction (ProQinase) EUB0000171b RET. The format is protein assay.
Coiled-coil domain-containing protein 6/Tyrosine-protein kinase receptor RET (Homo sapiens), sequence (P07949 29-1114 limits assumed): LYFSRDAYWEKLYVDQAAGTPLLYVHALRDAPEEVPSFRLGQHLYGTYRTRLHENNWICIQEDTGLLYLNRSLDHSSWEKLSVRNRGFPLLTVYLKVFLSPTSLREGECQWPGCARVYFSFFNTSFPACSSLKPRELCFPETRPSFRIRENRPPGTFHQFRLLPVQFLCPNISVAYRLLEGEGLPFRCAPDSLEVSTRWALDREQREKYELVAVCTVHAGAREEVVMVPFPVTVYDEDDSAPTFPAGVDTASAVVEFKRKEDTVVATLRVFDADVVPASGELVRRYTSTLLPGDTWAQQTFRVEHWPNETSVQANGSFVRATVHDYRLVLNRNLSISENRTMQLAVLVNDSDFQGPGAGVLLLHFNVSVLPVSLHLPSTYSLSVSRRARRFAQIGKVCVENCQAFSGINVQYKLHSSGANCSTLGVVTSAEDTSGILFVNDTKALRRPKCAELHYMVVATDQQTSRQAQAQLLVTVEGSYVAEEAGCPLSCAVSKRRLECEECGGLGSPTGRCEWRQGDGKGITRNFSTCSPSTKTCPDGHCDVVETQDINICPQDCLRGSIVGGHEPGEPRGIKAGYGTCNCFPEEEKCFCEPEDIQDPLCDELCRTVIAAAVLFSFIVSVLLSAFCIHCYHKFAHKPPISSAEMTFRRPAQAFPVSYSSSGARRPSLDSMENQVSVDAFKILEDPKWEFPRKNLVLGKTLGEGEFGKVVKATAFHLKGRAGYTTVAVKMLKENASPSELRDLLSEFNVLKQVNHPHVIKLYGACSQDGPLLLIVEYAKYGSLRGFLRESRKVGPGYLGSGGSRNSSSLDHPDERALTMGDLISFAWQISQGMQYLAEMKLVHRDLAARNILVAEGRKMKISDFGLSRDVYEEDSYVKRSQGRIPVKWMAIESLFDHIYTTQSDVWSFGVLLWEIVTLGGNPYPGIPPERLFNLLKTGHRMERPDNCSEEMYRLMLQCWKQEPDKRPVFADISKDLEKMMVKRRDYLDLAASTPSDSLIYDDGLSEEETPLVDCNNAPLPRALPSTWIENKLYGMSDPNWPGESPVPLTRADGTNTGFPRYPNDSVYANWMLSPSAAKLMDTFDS
Coiled-coil domain-containing protein 6/Tyrosine-protein kinase receptor RET (Homo sapiens), sequence (Q16204 2-474 partner limits assumed): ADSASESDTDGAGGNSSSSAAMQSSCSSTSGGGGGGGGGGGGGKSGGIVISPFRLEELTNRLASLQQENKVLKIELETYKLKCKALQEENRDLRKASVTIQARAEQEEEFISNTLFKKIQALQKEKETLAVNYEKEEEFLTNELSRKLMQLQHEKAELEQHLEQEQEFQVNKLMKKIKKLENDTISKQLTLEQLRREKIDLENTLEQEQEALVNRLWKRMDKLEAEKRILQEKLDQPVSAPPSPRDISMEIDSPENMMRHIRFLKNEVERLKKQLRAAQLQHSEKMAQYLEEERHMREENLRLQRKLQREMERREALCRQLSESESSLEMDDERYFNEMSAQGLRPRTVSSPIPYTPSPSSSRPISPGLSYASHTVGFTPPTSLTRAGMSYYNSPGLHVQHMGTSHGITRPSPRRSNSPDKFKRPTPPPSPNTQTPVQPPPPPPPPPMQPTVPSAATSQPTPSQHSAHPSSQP
Assay [3] concerns the target T2, cGMP-dependent protein kinase 1 (Homo sapiens) (UniProt Q13976).
T2 sequence (whole entry): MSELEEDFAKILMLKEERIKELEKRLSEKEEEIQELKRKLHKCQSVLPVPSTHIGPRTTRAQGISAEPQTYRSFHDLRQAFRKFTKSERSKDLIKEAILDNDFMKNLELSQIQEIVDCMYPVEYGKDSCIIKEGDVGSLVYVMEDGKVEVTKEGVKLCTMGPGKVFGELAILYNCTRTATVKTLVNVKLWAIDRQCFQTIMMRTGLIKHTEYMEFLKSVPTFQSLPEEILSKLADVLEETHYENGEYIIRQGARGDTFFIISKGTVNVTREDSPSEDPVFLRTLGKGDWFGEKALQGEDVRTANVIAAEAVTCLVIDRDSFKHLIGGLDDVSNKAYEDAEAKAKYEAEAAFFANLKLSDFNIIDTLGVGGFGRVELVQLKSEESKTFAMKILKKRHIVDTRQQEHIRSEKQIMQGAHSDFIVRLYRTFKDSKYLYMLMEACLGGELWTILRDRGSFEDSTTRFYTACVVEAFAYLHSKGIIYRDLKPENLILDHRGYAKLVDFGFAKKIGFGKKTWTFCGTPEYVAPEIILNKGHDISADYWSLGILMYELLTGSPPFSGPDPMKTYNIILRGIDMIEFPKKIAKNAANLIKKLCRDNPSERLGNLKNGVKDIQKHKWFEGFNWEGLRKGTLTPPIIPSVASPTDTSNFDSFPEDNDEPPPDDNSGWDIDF
As to the kind of experiment: Selectivity interaction (KinomeScan (DiscoverX)) EUB0000092b PRKG1. To be noted: at 10 µM.

Assay [4] addresses Serine/threonine-protein kinase N1 (Homo sapiens, UniProt Q16512). As to the kind of experiment: Selectivity interaction (KinomeScan (DiscoverX)) EUB0000695a PKN1. To be noted: at 100 nM.
Assay [5] has as its target Casein kinase I isoform epsilon (Homo sapiens, UniProt P49674). As to the kind of experiment: Selectivity interaction (SelectScreen profiling (Invitrogen)) EUB0000607a CSNK1E. To be noted: at 2 µM.
For assay [6], the target named is T3, Dual specificity tyrosine-phosphorylation-regulated kinase 2 (Homo sapiens) (UniProt Q92630).
T3 sequence (whole entry): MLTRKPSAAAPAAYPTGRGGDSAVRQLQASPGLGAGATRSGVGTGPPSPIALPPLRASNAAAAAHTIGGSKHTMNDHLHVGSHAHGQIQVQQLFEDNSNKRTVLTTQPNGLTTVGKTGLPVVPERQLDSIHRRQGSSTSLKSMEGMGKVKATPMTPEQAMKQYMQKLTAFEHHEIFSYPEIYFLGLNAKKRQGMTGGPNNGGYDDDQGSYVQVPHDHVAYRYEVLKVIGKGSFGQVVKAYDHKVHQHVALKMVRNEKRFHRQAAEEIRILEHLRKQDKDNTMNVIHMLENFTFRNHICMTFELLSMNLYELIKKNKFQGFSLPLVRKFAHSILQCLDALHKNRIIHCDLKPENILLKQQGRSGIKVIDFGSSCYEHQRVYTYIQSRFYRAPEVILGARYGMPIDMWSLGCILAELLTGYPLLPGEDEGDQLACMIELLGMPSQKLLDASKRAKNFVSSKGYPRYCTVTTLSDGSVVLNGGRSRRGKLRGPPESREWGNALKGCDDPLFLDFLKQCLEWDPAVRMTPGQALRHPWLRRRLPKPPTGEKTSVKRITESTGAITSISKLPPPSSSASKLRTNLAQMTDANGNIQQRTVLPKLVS
The experiment in a line: Selectivity interaction (KinomeScan (DiscoverX)) EUB0000595a DYRK2. To be noted: at 10 µM.

Five compounds from ChEMBL document CHEMBL5465560, “Selectivity Literature for EUbOPEN Chemogenomic Library” (2024) can be followed below.

Molecules are shown by their SMILES.

Serine/threonine-protein kinase N1, sequence (Q16512 2-942 limits assumed): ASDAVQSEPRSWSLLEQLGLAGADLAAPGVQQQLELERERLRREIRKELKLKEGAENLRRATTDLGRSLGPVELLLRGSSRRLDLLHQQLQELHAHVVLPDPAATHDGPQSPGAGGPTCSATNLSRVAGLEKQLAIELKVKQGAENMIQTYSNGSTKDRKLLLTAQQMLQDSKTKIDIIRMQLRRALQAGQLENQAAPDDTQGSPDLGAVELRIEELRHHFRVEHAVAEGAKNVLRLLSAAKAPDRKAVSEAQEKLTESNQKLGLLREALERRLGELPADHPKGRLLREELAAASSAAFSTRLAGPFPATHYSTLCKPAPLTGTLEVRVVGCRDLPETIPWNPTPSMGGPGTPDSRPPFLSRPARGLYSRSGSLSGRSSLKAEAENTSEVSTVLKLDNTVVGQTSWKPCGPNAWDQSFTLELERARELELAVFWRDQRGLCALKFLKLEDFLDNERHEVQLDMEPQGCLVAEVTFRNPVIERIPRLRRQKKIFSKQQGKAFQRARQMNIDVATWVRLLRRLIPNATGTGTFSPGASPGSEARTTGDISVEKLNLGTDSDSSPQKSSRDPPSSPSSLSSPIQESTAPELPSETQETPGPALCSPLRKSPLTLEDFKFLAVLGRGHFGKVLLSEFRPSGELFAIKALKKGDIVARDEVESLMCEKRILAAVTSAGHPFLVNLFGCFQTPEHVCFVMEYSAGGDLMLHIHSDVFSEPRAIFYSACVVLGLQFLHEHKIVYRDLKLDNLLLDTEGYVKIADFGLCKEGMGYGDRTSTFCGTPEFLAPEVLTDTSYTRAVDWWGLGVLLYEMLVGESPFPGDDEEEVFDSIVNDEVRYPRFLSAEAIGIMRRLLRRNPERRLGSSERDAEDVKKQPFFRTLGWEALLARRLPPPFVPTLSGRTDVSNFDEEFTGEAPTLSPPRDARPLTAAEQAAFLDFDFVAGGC
Casein kinase I isoform epsilon, sequence (P49674 whole entry, looked up, canonical isoform): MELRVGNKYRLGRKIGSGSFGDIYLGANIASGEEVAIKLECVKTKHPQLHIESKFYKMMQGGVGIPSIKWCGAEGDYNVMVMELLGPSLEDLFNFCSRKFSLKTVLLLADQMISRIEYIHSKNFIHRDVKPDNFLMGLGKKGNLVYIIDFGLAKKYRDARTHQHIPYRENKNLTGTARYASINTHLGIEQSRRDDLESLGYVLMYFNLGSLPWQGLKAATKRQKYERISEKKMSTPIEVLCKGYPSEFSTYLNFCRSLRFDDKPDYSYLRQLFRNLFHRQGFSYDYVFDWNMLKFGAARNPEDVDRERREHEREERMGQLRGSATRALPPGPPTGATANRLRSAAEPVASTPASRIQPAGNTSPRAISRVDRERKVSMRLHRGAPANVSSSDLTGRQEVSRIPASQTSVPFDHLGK

Take `C=CC(=O)Nc1cccc(C(=O)Nc2ccc(Nc3cc(-c4[nH]c(SC)nc4C)ccn3)cc2)c1`: the % of control in assay [1] (at 1 µM) was determined as 106%; in assay [1] (at 5 µM), 108%; in assay [2] (at 1 µM), 84%; in assay [2] (at 5 µM) it was 84%.

With `CCC(=O)N1CCN(c2ccc(-n3c(=O)ccc4cnc5ccc(-c6cnc7ccccc7c6)cc5c43)cc2C(F)(F)F)CC1`, in assay [3], the % of control was 86%.

As to `Cc1cc(F)c(C(=O)Nc2cccc(-c3nncn3C(C)C)n2)cc1-n1cnc(C2CC2)c1`, the % of control in assay [4] amounted to 83%.

Turning to `CNC(=O)Nc1ccc(-c2nc(N3CC4CCC(C3)O4)c3cnn(C4CCC5(CC4)OCCO5)c3n2)cc1`, the % of inhibition in assay [5] worked out at 4%.

Regarding `COCC(=O)NC/C=C/c1ccc2ncnc(Nc3ccc(Oc4ccc(C)nc4)c(C)c3)c2c1` [CP-724714], the % of control in assay [6] was determined as 100%.
